According to PubChem BioAssay (NCI):
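Following 48 hours of exposure in 96-well plates, responses at five concentrations were used to interpolate endpoints linearly. Definition used: TGI = concentration required for complete inhibition of growth.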

Columns and labels:
Experiment in all cases: DTP human tumour cell line panel, 48 h
KM20L2 colon = test system: KM20L2 colon
NCI-H226 lung = test system: NCI-H226 lung
XF 498 CNS = test system: XF 498 CNS
M19-MEL melanoma = test system: M19-MEL melanoma
COLO 205 colon = test system: COLO 205 colon
DLD-1 colon = test system: DLD-1 colon
DMS 273 small cell lung = test system: DMS 273 small cell lung
DMS 114 small cell lung = test system: DMS 114 small cell lung
SNB-78 CNS = test system: SNB-78 CNS
LXFL 529 NSCLC = test system: LXFL 529 NSCLC
PC-3 prostate = test system: PC-3 prostate
HOP-18 NSCLC = test system: HOP-18 NSCLC
RXF-631 renal = test system: RXF-631 renal

| SMILES | TGI (NCI-H226 lung) | TGI (COLO 205 colon) | TGI (PC-3 prostate) | further results |
| --- | --- | --- | --- | --- |
| CC(=O)NC(CCCN)C(=O)NCc1ccccc1 (centres undefined) | > 100 µM | > 100 µM |  | TGI (KM20L2 colon): > 100 µM; TGI (XF 498 CNS): > 100 µM; TGI (M19-MEL melanoma): > 100 µM; TGI (DLD-1 colon): > 100 µM; TGI (DMS 273 small cell lung): > 100 µM; TGI (DMS 114 small cell lung): > 100 µM; TGI (SNB-78 CNS): > 100 µM; TGI (LXFL 529 NSCLC): > 100 µM |
| COc1ccc2c(c1)OCc1c-2oc2ccccc2c1=O | > 100 µM | > 100 µM | > 100 µM |  |
| CC1=CC(=O)NCCN1C | > 100 µM | > 100 µM |  | TGI (KM20L2 colon): > 100 µM; TGI (XF 498 CNS): > 100 µM; TGI (M19-MEL melanoma): > 100 µM; TGI (DLD-1 colon): > 100 µM; TGI (DMS 273 small cell lung): > 100 µM; TGI (HOP-18 NSCLC): > 100 µM; TGI (DMS 114 small cell lung): > 100 µM; TGI (SNB-78 CNS): > 100 µM; TGI (LXFL 529 NSCLC): > 100 µM |
| O=C(CCc1ccc(O)cc1)NCCc1ccc(O)cc1 | > 100 µM | > 100 µM | > 100 µM |  |
| O=C(CC(=O)N(C(=O)c1ccccc1)c1ccc(Cl)cc1)N/N=C\c1cc(N=Nc2ccccc2Cl)ccc1O | > 100 µM | > 100 µM | > 100 µM |  |
| O=C1C(Br)=CC2(C=C1Br)CCN=c1c(O)c3c(c(O)c12)=NC=N3 | 37.4 µM | 37.6 µM | > 100 µM |  |
| COc1ccc(-c2c(C(C)=O)c(-c3ccccc3)n(C3OC(COC(C)=O)C(OC(C)=O)C(OC(C)=O)C3OC(C)=O)c(=S)c2C#N)cc1 (centres undefined) | > 100 µM | > 100 µM |  |  |
| N#CCCN(c1ccc(/C=C2\N=C(c3ccc(Cl)cc3)OC2=O)cc1)S(=O)(=O)c1ccccc1 | > 100 µM | > 100 µM |  | TGI (KM20L2 colon): > 100 µM; TGI (XF 498 CNS): > 100 µM; TGI (RXF-631 renal): > 100 µM; TGI (M19-MEL melanoma): > 100 µM; TGI (DLD-1 colon): > 100 µM; TGI (DMS 273 small cell lung): > 100 µM; TGI (DMS 114 small cell lung): > 100 µM; TGI (LXFL 529 NSCLC): > 100 µM |
| CCOC(=O)[C@H]1Nc2ccc(C)cc2C2c3ccccc3CC21 (some centres undefined) | > 100 µM | > 100 µM |  | TGI (KM20L2 colon): > 100 µM; TGI (M19-MEL melanoma): > 100 µM; TGI (DLD-1 colon): > 100 µM; TGI (DMS 273 small cell lung): > 100 µM; TGI (HOP-18 NSCLC): > 100 µM; TGI (DMS 114 small cell lung): > 100 µM; TGI (SNB-78 CNS): > 100 µM; TGI (LXFL 529 NSCLC): > 100 µM |
| CCOC(=O)/C(O)=C(/C=NC(=S)c1ccncc1)C(=O)OCC | > 100 µM | > 100 µM | > 100 µM |  |
| CCCCCCCCCCCCCCCCCc1cccc(OCOCCOC)c1CO | > 100 µM | > 100 µM | > 100 µM |  |
| CCOC(=O)c1c(SC(=O)/C=C/c2ccccc2)n(-c2ccccc2)c(=S)n(-c2ccccc2)c1=O | > 100 µM | > 100 µM | > 100 µM |  |
| CCOC(=O)C(=C(SC)SC)c1nn2c(=O)cc(C)nc2s1 | 44.6 µM | 36.2 µM | 56.6 µM |  |
| S=C(/N=c1/sc(Nc2ccccc2)nc2sc3c(c12)CCCC3)Nc1ccccc1 | > 62.5 µM | > 62.5 µM | > 62.5 µM |  |
| Nc1nc(Cl)cc(NCC2(CO)CC(OCc3ccccc3)C2)n1 (centres undefined) | > 100 µM | > 100 µM | > 100 µM |  |
| Cc1cccc2c(N)c3cccc(C(=O)NCCCNCCN)c3nc12 | 9.15 µM | 20.1 µM | 35.3 µM |  |
| c1ccc2c(c1)nc1n2CNCC1 | > 100 µM | > 100 µM | > 100 µM |  |
| O=P(c1ccccc1)(c1ccccc1)C(NCc1ccccc1)c1ccc(F)cc1 (centres undefined) | 40.4 µM | 29.7 µM |  |  |

| SMILES | TGI (NCI-H226 lung) | TGI (COLO 205 colon) | TGI (PC-3 prostate) | further results |
| --- | --- | --- | --- | --- |
| O=P(O)(O)CN1CCN(CP(=O)(O)O)CCN(CP(=O)(O)O)CCN(CP(=O)(O)O)CC1 | > 100 µM | > 100 µM | > 100 µM |  |
| CC(C(=O)N1c2ccccc2Sc2ccccc21)N1c2ccccc2Sc2ccccc21 (centres undefined) | > 100 µM | > 100 µM | > 100 µM |  |
| COc1cccc(C2c3cc4c(cc3OC(N3CCCC3)C2C)OCO4)c1 (centres undefined) |  | 36.7 µM | 46.9 µM |  |
| CC(=O)NCc1nc(C#N)c(N)o1 | > 100 µM | > 100 µM | > 100 µM |  |
| N#CC1=C(N2CCCC2)NC(=O)CC1=O | > 100 µM | > 100 µM | > 100 µM |  |
| COc1cc(C2c3cc4c(cc3[C@@H](Nc3ccccc3)C3CO[C@@H](OC)[C@H]23)OCO4)cc(OC)c1O (some centres undefined) |  | > 25 µM | > 25 µM |  |
| CC(=O)O[C@@H]1C=C(C)[C@H](CBr)O[C@@]2(C)CC[C@H](Br)C(C)(C)[C@H]12 | > 100 µM | > 100 µM | > 100 µM |  |
| O=C1c2ccccc2S[C@@H](O)[C@@H]2CCCN12 |  | > 100 µM |  | TGI (KM20L2 colon): > 100 µM; TGI (XF 498 CNS): > 100 µM; TGI (M19-MEL melanoma): > 100 µM; TGI (DLD-1 colon): > 100 µM; TGI (DMS 273 small cell lung): > 100 µM; TGI (HOP-18 NSCLC): > 100 µM; TGI (DMS 114 small cell lung): > 100 µM; TGI (SNB-78 CNS): > 100 µM; TGI (LXFL 529 NSCLC): > 100 µM |
| Cc1ccccc1Nc1cn(COCc2ccccc2)c(=O)[nH]c1=O |  | > 100 µM | > 100 µM |  |
| CCCN=C(NC(=O)c1ccc(Cl)cc1)SC | > 100 µM | > 100 µM | > 100 µM |  |
| CCOC(=O)CC(NC(=O)c1nc[nH]c1[N+](=O)[O-])C(=O)OCC (centres undefined) | 72.5 µM | > 100 µM |  | TGI (M19-MEL melanoma): > 100 µM; TGI (DLD-1 colon): > 100 µM; TGI (DMS 273 small cell lung): > 100 µM; TGI (DMS 114 small cell lung): > 100 µM; TGI (LXFL 529 NSCLC): > 100 µM |
| COC1(OC)C2(Cl)CCC1(Cl)C(OC(C)=O)C2 (centres undefined) | > 100 µM | > 100 µM | > 100 µM |  |
| O=C1NNC(=O)C2C3c4ccccc4C(c4ccccc43)C12 (centres undefined) | > 100 µM | > 100 µM | > 100 µM |  |
| CC1CN=C(Nc2ccc(S(N)(=O)=O)cc2)S1 (centres undefined) |  | > 100 µM | > 10 µM |  |
| Oc1cc(O)c2c(c1)O[C@H](c1cc(O)c(O)c(O)c1)[C@H](O)C2 | > 100 µM | 33.2 µM | 42.9 µM |  |
| Cc1nc(N)c(N2CCNCC2)c(=O)[nH]1 | > 100 µM | > 100 µM | > 100 µM |  |
| CC/C(=N/O)c1ccc(Br)s1 | > 100 µM | > 100 µM | > 100 µM |  |
